Read-outs that look alike come from different tables or passages of the source.
Legend:
[1] = test system: Human peripheral blood mononuclear cells; assay: Human Concanavalin-A Proliferation Assay (Con HU Assay); format: cell-based; conditions: concanavalin-A stimulated human PBMC; for IC50: tritiated thymidine
Method in brief: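 Histopaque-isolated human PBMC (50,000/well) were pre-incubated 15 min with compounds, then stimulated with concanavalin-A at 2.5 μg/ml final for 3 days at 37 °C, 5% CO2. Proliferation measured by 6 h pulse with 0.5 μCi/well [3H]thymidine and beta counting.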

[2] = test system: IL-2; assay: CD3 and CD28 Activation of Peripheral Blood T Cells and Determination of Secreted IL-2 Levels (C28 HU Assay); format: cell-based, Human; conditions: PBMC stimulated with anti-CD3 and anti CD28 mAbs, 24 hour; for IC50: IL-2 secretion
Experimental: Human peripheral blood mononuclear cells were cultured in RPMI 1640 medium supplemented with 10 μg/ml gentamicin, 50 μM 2-mercaptoethanol, 1X MEM non-essential amino acids (Sigma Chemical Co., St. Louis, Mo.), 100 U/ml sodium penicillin G, 100 μg/ml streptomycin sulfate, 2 mM L-glutamine, 1 mM sodium pyruvate (Life Technologies, Grand Island, N.Y.) and 10% fetal bovine serum (Hyclone, Logan, Utah) at 37° C. with 5% CO2.
Human peripheral blood mononuclear cells (PBMC) were isolated by Ficoll-Hypaque seperation. PBMCs were stimulated with a combination of immobilized anti-CD3 and soluble anti CD28 mAbs as described in Faltynek, et al. J. Enzyme Inhibition 1995, 9, 111-122, hereby incorporated by reference. Following a 24 hour incubation, cell supernatants were harvested and IL-2 levels were determined. 100 μl of 5 μg/ml monoclonal murine anti-human IL-2 antibody (Biosource International) in D-PBS was added to 96 well Maxisorb plates (Nunc) and incubated at 4° C. overnight. Plates were washed 4 times with D-PBS containing 0.05% Tween 20 (wash buffer) and blocked with D-PBS containing 1% BSA and 10 mM NaN3 (Diluent/Blocking buffer) for 1-3 hours at room temperature or overnight at 4° C. Plates were washed and recombinant human IL-2 diluted (at 10,000, 5,000, 2,500, 1,250, 625, 312.5, 156.25, 78, 39, 20 pg/ml) in diluent/blocking buffer containing a matched percentage of complete RPMI 1640 medium as the unknown samples. Tissue culture supernatant at various dilutions were added in triplicate at 100 μl/well. Plates were incubated for 2 hours at room temperature and washed 4 times with wash buffer. 100 pl of rabbit anti-human IL-2 (10 μg/ml, Genzyme) was added and incubated for 1 hour at room temperature. The incubation was followed by 4 washes and subsequent addition of 100 pl of 1:2000 dilution of alkaline phosphatase-conjugated goat anti-rabbit F(ab′)2 (Biosource International). After 1 hour the plates were washed 4 times and 100 μl of pNPP (Southern Biotech or Sigma) at 1 mg/ml in buffer was added. Color development was allowed to proceed at room temperature for 20 minutes before addition of 50 μl of 2 N NaOH. Absorbance at 405 nm was determined using a plate reader (Molecular Devices). IL-2 concentrations were calcualted using SoftMax (Molecular Devices) based on the IL-2 standard solutions.

[3] = test system: IL-4; assay: Measurement of IL-4 Levels in Human T Cells (IL-4 Assay); format: cell-based; conditions: Human T cells (HUT 78), phorbol 12-myristate 13-acetate and anti-CD3, 32 hours, ELISA, read-out: IL-4 Inhibition IC50
Experimental: (§1) Measurement of IL-5 and IL-4 Levels in Human T Cells (IL-4 and IL-5 Assays) Human T cells (HUT 78) were cultured to 1×10^6/mL in RPMI 1640 medium containing 10% fetal calf serum, 100 U/mL penicillin and 100 μg/mL streptomycin. Cultures were then centrifuged, to pellet the cells, and cells resuspended in fresh medium to the same density. 0.2 mL samples of cells were incubated in 96-well plates with 8 μL of various concentrations of compound freshly diluted with the above medium from 100 mM solvent stocks (ethanol or DMSO). Immediately after addition of compound, cells were stimulated by addition of 2 ng/mL phorbol 12-myristate 13-acetate (1 μL of freshly prepared solution of stock (in DMSO) diluted with the above medium added to cells) and 750 μg/mL anti-CD3 (pre-coated at 4° C. overnight). Cell cultures were incubated at 37 OC for 32 hours, then cells pelleted by centrifugation and the supernatants harvested for ELISA. IL-4 and IL-5 ELISA's were performed according to standard procedures. Inhibition was calculated relative to cytokine levels produced from control stimulated cells not treated with compound.

[4] = test system: IL-5; assay: Measurement of IL-5 Levels in Human T Cells (IL-5 Assay); format: cell-based; conditions: Human T cells (HUT 78), phorbol 12-myristate 13-acetate and anti-CD3, 32 hours, ELISA, read-out: IL-5 Inhibition IC50
Experimental: as §1

[5] = concentration 100 μm (in parentheses in the cell), 3 days

SMILES	IC50 [1] [nM]	% Inhibition of proliferation (at concentrations of 1,10, or 100 μm) [1, 5]	IC50 [2] [nM]	IC50 [3] [nM]	IC50 [4] [nM]	inhibition at 100 µM ([1]; Homo sapiens, PBMC, 72 h, concentration 100 μm (in parentheses in the cell), 3 days, read-out: % Inhibition of proliferation (at concentrations of 1,10, or 100 μm)) [%]	IC50 ([1]; Homo sapiens, PBMC) [nM]	IC50 ([2]; Homo sapiens) [nM]	inhibition at 100 µM ([2]; Homo sapiens, concentration 100 μM (in c2), read-out: % Inhibition of IL-2 secretion (At concentrations of 1, 10, or 100 μM)) [%]	IC50 ([3]; HuT78) [nM]	melting point [°C]	IC50 ([4]; HuT78) [nM]
O=C(Nc1ccc(Cl)cc1)c1ccc(-n2nc(C(F)(F)F)cc2C(F)(F)F)cc1 [Example 24, N-4-[3,5-bis(trifluoromethyl)-1H-pyrazol-1-yl]-N-(4-chlorophenyl)benzamide]	301	98(100) %	380	150	150							
Cc1noc(C)c1C(=O)Nc1ccc(-n2nc(C(F)(F)F)cc2C(F)(F)F)cc1 [Example 266, N-[4-[3,5-bis(trifluoromethyl)-1H-pyrazol-1-yl]phenyl]-3,5-dimethyl-4-isoxazolecarboxamide]						100	322	314	88	110	179 to 180	150
Cc1nnsc1C(=O)Nc1ccc(-n2nc(C(F)(F)F)cc2C(F)(F)F)cc1 [Example 250, N-[4-[3,5-bis(trifluoromethyl)-1H-pyrazol-1-yl]phenyl]-4-methyl-1,2,3-thiadizole-5-carboxamide]	173	100(100) %	102	50	80							
